For data set [1], the system named is NO production in RAW264.7 cells induced by LPS. In words: NO production amount in LPS-induced RAW264.7 cells (Griess method). It counts as cell-based, mouse. As to conditions: for NO production amount: RAW264.7 induced by LPS 1 μg/mL. The procedure:
The NO production amount in the cell was measured by Griess method. The grouping, treatment and culture methods were the same as 1.2. After 24 hours of culture, the supernatant was collected and the NO production amount was measured using a NO detection kit. 50 μL of cell supernatant, 50 μL of Griess I reagent, and 50 μL of Griess II reagent were mixed, and stood for 5 minutes, and then the absorbance value at 540 nm was measured. According to the instructions of the NO kit, the NO production amount in each sample was calculated, and the inhibition ratio of NO production amount is calculated by formula (2).
In the formula, B refers to the NO inhibition ratio (%), B0 is the NO production amount of the blank group, B1 is the NO production amount of the LPS group, and B2 is the NO production amount of the sample group.
Background: Nitrite, measured by Griess reagent, commonly stands in for NO production.

In data set [2] the test system is TNF-α secretion in RAW264.7 cells induced by LPS. Description: TNF-α secretion in LPS-induced RAW264.7 cells (ELISA). The following applies: RAW264.7 induced by LPS; sample 500 μg/mL. It counts as cell-based, mouse. The procedure: (§1) The three groups were cultured in the incubator for 24 hours, and the supernatants were collected. According to the instructions of the ELISA kit, the absorbance value at 450 nm was measured and the secretion amounts of inflammatory factors TNF-α, IL-6 and IL-1β were calculated. The inhibition ratios of the three inflammatory factors were calculated by formula (3).
(§2) In the formula, C refers to the inhibition ratio (%) of inflammatory factors, Co is the secretion amount of inflammatory factors in the blank group, C1 is the secretion amount of inflammatory factors in the LPS group, and C2 is the secretion amount of inflammatory factors in the sample group.
In general terms: ELISA stands for enzyme-linked immunosorbent assay.

The subject of data set [3] is IL-6 secretion in RAW264.7 cells induced by LPS. Description: IL-6 secretion in LPS-induced RAW264.7 cells (ELISA). It counts as cell-based, mouse. As to conditions: RAW264.7 induced by LPS; sample 500 μg/mL. The protocol:
as §1, §2

Data set [4] relates to IL-1β secretion in RAW264.7 cells induced by LPS. In words: IL-1β secretion in LPS-induced RAW264.7 cells (ELISA). It counts as cell-based, mouse. The following applies: RAW264.7 induced by LPS; sample 500 μg/mL. The protocol:
as §1, §2

Data set [5] in a line: in vitro. The following applies: mouse, RAW264.7 macrophage cells induced by LPS, cell viability.
Procedure: The cell viability of RAW264.7 cells was determined by MTT method. RAW264.7 cells in the logarithmic growth phase were seeded in a 96-well plate at 100 μL/well with a density of 4×10^4/well. The outermost layer of the 96-well plate was sealed by PBS solution, and the 96-well plate was transferred to an incubator for culturing for 12 to 24 hours. The incubator temperature was 37° C. and the CO2 concentration was 5%. After the cells adhered to the wall, the waste supernatant was extracted from the 96-well plate. A blank group (added with 100 μL of culture medium), an LPS group (added with 100 μL of LPS with a final mass concentration of 1 μg/mL), and a sample group (added with 100 μL of peptides with different or the same mass concentration and added with LPS with a final mass concentration of 1 μg/mL after 2 hours of reaction) were set, and each group was performed in triplicate. After culturing for 24 hours, 20 μL of MTT solution with a concentration of 5 mg/mL was added into each well. After continuing to culture in the incubator for 4 hours, 100 μL of dimethyl sulfoxide (DMSO) was added and shaken gently for 10 min. The absorbance value at 570 nm was measured with a microplate reader, and the cell viability (%) was calculated according to the formula (1).
In the formula (1), V refers to the cell viability (%), A1 is the absorbance value of the blank group at 570 nm, and A2 is the absorbance value of the sample group at 570 nm.

Peptide text beside a SMILES is read from it. Bounds are passed on as bounds.

Regarding `N[C@@H](Cc1ccccc1)C(=O)NCC(=O)N1CCC[C@H]1C(=O)N[C@@H](Cc1c[nH]cn1)C(=O)O` [FGPH, Phe-Gly-Pro-His] (H-FGPH-OH), the NO production amount in data set [1] (sample 125 μg/mL) is 18.07 ± 0.31 µM. Also, the NO production amount in data set [1] (sample 250 μg/mL) stood at 16.23 ± 0.31 µM. In data set [1] (sample 500 μg/mL), this compound had an NO production amount of 13.82 ± 0.31 µM. Also, the “inhibition ratio of NO production amount” value in data set [1] (RAW264.7 induced by LPS, sample 500 μg/mL) amounted to 64.41±0.47%. In addition, the “inhibition ratio of TNF-α secretion” value in data set [2] amounted to 28.07±2.10%. The “inhibition ratio of IL-6 secretion” value in data set [3] worked out at 41.72±1.83%. For the same compound, the “inhibition ratio of IL-1β secretion” value in data set [4] turned out to be 52.43±2.29%. Also, in data set [5], the viability at 24 h, 125 µg/mL is > 109%; the viability at 24 h, 250 µg/mL is > 109%; the viability at 24 h, 500 µg/mL is > 109%; the viability at 24 h, 1000 µg/mL was < 97%.

For orientation: viability means a read-out of living cells in per cent, often relative to untreated cells.

For the origin of these results see patent US12150972B1, “Egg white protein anti-inflammatory peptide and application thereof” (Hangzhou BIBAU Biotechnology Co., Ltd., priority 2023, dated 2024).
